Values of other authors, collected in patent US4866035A, “Dipeptidyl saccharides as host resistance enhancers in AIDS-immuno-compromised hosts and methods of use” (Merck & Co., Inc., priority 1987, dated 1989).
Like-named read-outs stand apart in the source and are kept apart here.

Legend:
[1] = molecular target: HIV reverse transcriptase (Human immunodeficiency virus type 1 group M subtype B, UniProt P04585)
AIDS or ARC patients = conditions: ARC or AIDS-related conditions
[2] = test system: human immunodeficiency virus (HIV)
reverse transcriptase = conditions: in vitro
[3] = in vivo
[4] = clinical trials or use in patients

Compound | adverse effects, tolerability (patients; human, in vivo) | clinical effect in patients (AIDS or ARC patients) | also measured
O=C(O)P(=O)(O)O [Foscarnet, trioodium phosphonoformate] | serious side effects |  | inhibition of HIV reverse transcriptase [1]: Inhibits HIV reverse transcriptase activity in vitro
CO[C@H]1/C=C/O[C@@]2(C)Oc3c(C)c(O)c4c(c3C2=O)C2=NC3(CCN(CC(C)C)CC3)NC2=C(NC(=O)/C(C)=C\C=C\[C@H](C)[C@H](O)[C@@H](C)[C@@H](O)[C@@H](C)[C@H](OC(C)=O)[C@@H]1C)C4=O [Ansamycin] |  | some efficacy | 
ammonium-21-tungsto-9-antimoniate [HPA-23] |  | no therapeutic benefit has been documented | effect on HIV growth or infectivity [2]: some tendency to check the growth of HIV; inhibition of reverse transcriptase in several retroviruses (reverse transcriptase): Inhibits reverse transcriptase
CC(C)(N1CC1C#N)N1CC1C(N)=O (stereo not drawn) [Azimexon] |  | improvements in symptoms and immune function in patients with ARC but not AIDS | adverse effects, tolerability (patients; [4]): mild hemolysis
Cc1cn([C@H]2C[C@H](N=[N+]=[N-])[C@@H](CO)O2)c(=O)[nH]c1=O [Azidothymidine, 3'-azido 3'-deoxythymidine] |  | promise in prolonging lives | half life in the body [3]: relatively short half life; penetration of central nervous system [3]: effectively penetrates central nervous system; oral absorption ([3]; po): Well absorbed orally
CC(=O)Nc1ccc(C(=O)O)cc1.CC(=O)Nc1ccc(C(=O)O)cc1.CC(=O)Nc1ccc(C(=O)O)cc1.CC(O)CN(C)C.CC(O)CN(C)C.CC(O)CN(C)C.O=c1[nH]cnc2c1ncn2[C@@H]1O[C@H](CO)[C@@H](O)[C@H]1O [Inosine pranobex] |  | improve immune function in ARC patients | 
CC(C)(S)[C@@H](N)C(=O)O [D-Penicillamine, 3-mercapto D-valine] | temporarily depressed T cell levels | suppressed the virus | 
Cc1ccc(C(=O)Nc2ccc(S(=O)(=O)O)c3cc(S(=O)(=O)O)cc(S(=O)(=O)O)c23)cc1NC(=O)c1cccc(NC(=O)Nc2cccc(C(=O)Nc3cc(C(=O)Nc4ccc(S(=O)(=O)O)c5cc(S(=O)(=O)O)cc(S(=O)(=O)O)c45)ccc3C)c2)c1 [Suramin] | serious side effects |  | inhibition of HIV reverse transcriptase [1]: Potent inhibitor of HIV reverse transcriptase
NC(=O)c1ncn([C@@H]2O[C@H](CO)[C@@H](O)[C@H]2O)n1 [Ribavirin, 1-β-D-ribofuranosyl-1,2,4-triazole 3-carboxamide] |  | inhibited viral replication and improved immune function | adverse effects, tolerability (patients; [4]): well tolerated
α-Interferon |  | induced tumor regression in some AIDS-related Kaposi's sarcoma cases | effect on HIV growth or infectivity [2]: Checks the growth of HIV in vitro
